Like-named read-outs stand apart in the source and are kept apart here.
Experiments:
[1] = target: T1, AChE (Electrophorus electricus, UniProt O42275); assay: Cholinesterase inhibition assay; assay type: biochemical, electric eels; conditions: for fold decrease in potency against AChE: compared to the most potent compound (a11)
[2] = target: T2, MAO-A (Mus musculus, UniProt Q64133); assay: Monoamine oxidase A inhibition assay; assay type: biochemical, Mice; conditions: compared to (a3)
T2 sequence (Q64133 1-526): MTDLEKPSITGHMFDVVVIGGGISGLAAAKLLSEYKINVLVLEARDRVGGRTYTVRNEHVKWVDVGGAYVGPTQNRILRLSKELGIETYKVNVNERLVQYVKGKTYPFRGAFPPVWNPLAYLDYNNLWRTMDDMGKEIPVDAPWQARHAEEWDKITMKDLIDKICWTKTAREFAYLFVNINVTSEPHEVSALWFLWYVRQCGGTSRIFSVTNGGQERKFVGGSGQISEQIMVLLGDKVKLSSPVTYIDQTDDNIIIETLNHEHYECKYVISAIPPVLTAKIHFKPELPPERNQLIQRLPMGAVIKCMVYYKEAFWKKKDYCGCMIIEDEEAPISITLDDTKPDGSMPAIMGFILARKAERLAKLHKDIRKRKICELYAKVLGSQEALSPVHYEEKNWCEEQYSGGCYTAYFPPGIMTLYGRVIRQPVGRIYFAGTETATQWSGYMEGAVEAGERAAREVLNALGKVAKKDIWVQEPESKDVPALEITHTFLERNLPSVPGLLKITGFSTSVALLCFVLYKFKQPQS

[3] = target: T3, MAO-B (Mus musculus, UniProt Q8BW75); assay: Monoamine oxidase B inhibition assay; assay type: biochemical, Mice; conditions: compared to the most potent compound (a12)
T3 sequence (Q8BW75 2-520): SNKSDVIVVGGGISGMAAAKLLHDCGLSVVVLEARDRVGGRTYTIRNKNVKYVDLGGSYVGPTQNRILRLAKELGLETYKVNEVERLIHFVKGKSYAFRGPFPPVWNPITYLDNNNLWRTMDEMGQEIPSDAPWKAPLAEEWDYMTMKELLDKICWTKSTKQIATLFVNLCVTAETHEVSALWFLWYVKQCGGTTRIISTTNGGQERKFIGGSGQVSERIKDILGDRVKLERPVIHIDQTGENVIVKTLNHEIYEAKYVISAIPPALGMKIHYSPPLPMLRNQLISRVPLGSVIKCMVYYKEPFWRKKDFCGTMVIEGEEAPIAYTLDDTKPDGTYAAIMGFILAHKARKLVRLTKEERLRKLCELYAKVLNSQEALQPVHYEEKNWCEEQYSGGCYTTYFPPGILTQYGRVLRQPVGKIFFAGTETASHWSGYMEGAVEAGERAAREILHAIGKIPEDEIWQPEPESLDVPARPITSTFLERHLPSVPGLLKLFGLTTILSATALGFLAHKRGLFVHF

[4] = target: T4, BChE (Equus caballus, UniProt P81908); assay: Cholinesterase inhibition assay; assay type: biochemical, horse; conditions: for fold decrease in activity against BChE: compared to the di-methoxy substituted compound, printed as (a5)
[5] = tested on: MAO-A; assay: Enzyme kinetic study; assay type: biochemical; conditions: Lineweaver-Burk plot, substrate p-tyramine
[6] = target: T1, AChE; assay: Enzyme kinetic study; assay type: biochemical; conditions: Lineweaver-Burk plot, substrate ATCII
[7] = target: T4, BChE; assay: Enzyme kinetic study; assay type: biochemical; conditions: Lineweaver-Burk plot, substrate BTCII
[8] = tested on: MAO-B; assay: Enzyme kinetic study; assay type: biochemical; conditions: Lineweaver-Burk plot, substrate p-tyramine
[9] = read-out: IC50 BChE, N/A = Not active (footnote b)

T4 sequence (P81908 whole entry): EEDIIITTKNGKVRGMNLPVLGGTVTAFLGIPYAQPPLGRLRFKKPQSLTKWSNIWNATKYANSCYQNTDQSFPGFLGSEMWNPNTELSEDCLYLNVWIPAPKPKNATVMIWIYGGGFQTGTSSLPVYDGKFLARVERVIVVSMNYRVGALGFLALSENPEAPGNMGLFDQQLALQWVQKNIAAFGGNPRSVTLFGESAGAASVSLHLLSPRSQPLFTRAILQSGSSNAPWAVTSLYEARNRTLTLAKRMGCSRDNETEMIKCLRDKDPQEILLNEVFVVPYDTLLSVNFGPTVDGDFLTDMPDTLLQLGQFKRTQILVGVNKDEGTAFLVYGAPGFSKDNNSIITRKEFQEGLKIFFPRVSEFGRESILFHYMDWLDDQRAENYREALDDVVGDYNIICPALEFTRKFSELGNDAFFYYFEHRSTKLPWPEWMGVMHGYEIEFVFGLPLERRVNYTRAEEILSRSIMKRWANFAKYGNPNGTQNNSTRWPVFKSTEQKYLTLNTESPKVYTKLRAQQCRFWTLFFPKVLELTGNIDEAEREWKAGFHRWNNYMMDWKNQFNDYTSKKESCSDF
T1 sequence (O42275 24-633): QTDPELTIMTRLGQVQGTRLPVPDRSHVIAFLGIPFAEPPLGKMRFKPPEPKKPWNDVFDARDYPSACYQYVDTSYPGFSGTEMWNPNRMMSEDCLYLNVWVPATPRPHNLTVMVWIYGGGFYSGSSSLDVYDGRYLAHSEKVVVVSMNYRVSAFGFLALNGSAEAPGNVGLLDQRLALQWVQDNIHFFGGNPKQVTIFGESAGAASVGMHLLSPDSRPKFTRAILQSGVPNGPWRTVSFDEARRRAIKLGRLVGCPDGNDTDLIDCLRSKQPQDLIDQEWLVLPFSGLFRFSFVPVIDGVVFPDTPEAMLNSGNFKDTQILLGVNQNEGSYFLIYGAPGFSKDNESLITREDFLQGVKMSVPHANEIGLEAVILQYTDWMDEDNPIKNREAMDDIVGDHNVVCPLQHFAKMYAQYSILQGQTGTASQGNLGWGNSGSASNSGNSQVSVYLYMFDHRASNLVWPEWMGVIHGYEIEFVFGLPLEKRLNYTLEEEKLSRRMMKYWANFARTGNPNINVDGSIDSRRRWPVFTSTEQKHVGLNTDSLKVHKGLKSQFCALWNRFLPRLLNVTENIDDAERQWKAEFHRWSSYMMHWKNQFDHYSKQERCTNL

Compound	IC50 [1] [nM]	fold decrease in potency against AChE [1] [fold]	IC50 ([1]; read-out: IC50 AChE) [nM]	other results
O=S(=O)(Nc1cccc(I)c1)c1cccc2cccnc12 [a1, N-(3-Iodophenyl)quinoline-8-sulfonamide]	1110 ± 570	~2	–	–
Cc1ccc(F)c(CNS(=O)(=O)c2cccc3cccnc23)c1 [a2, N-(2-Fluoro-5-methylphenzyl)quinoline-8-sulfonamide]	–	~3	2580 ± 970	fold decrease in activity against MAO-A [2]: 4 fold; fold reduction in potency against MAO-B [3]: 4 fold
O=S(=O)(NCc1ccc(Cl)cc1)c1cccc2cccnc12 [a4, N-(4-Chlorobenzyl)quinoline-8-sulfonamide]	2180 ± 1170	~4	–	–
O=S(=O)(NCc1cccc(Cl)c1)c1cccc2cccnc12 [a5, N-(3-Chlorobenzyl)quinoline-8-sulfonamide]	1950 ± 1070	~4	–	IC50 [4]: 2840 ± 1070 nM; fold decrease in activity against BChE [4]: ~2 fold; mode of inhibition toward MAO-A [5]: competitive inhibition
O=S(=O)(Nc1ccc(I)cc1)c1cccc2cccnc12 [a8, N-(4-Iodophenyl)quinoline-8-sulfonamide]	1150 ± 720	~2	–	–
N#Cc1ccc(NS(=O)(=O)c2cccc3cccnc23)cc1 [a9, N-(4-Cyanophenyl)quinoline-8-sulfonamide]	3780 ± 920	7	–	–
O=S(=O)(NCC1CCCCC1)c1cccc2cccnc12 [a10, N-(Cyclohexylmethyl)quinoline-8-sulfonamide]	1360 ± 770	–	–	–
O=S(=O)(NCc1cc(F)cc(C(F)(F)F)c1)c1cccc2cccnc12 [a14, N-(3-Fluoro-5-(trifluoromethyl)benzyl)quinoline-8-sulfonamide]	–	–	3060 ± 770	IC50 [4, 9]: 1180 ± 570 nM
O=S(=O)(NCc1ccc(Cl)cc1Cl)c1cccc2cccnc12 [a15, N-(2,4-Dichlorobenzyl)-8-quinolinesulfonamide]	1400 ± 540	~2.5	–	–
O=S(=O)(NCc1ccccc1Cl)c1cccc2cccnc12 [a16, N-(2-Chlorobenzyl)-8-quinolinesulfonamide]	1920 ± 870	~4	–	–
COc1ccc(CNS(=O)(=O)c2cccc3cccnc23)cc1 [a18, N-(4-Methoxybenzyl)-8-quinolinesulfonamide]	1010 ± 610	2	–	IC50 [4]: 2780 ± 920 nM; fold decrease in activity against BChE [4]: 2 fold
N-(2,3-Dihydro-1H-benzo[d]imidazole-2-yl)quinoline-8-sulfonamide [a7]	–	–	1730 ± 870	fold reduction in potency against MAO-B [3]: 2 fold
N-(2,6-Difluorophenyl)quinoline-8-sulfonamide [a3]	–	~3	1010 ± 590	fold reduction in potency against MAO-B [3]: 4 fold
N-(2-Fluorobenzyl)quinoline-8-sulfonamide [a13]	–	3	1650 ± 970	fold decrease in activity against MAO-A [2]: 2 fold; fold reduction in potency against MAO-B [3]: 3 fold
N-(2-Hydroxyphenyl)quinoline-8-sulfonamide [a11]	–	–	580 ± 50	fold reduction in potency against MAO-B [3]: 2 fold; mode of inhibition toward AChE [6]: competitive inhibition
N-(3,4-Dimethoxybenzyl)quinoline-8-sulfonamide [a6]	–	2	1110 ± 470	mode of inhibition toward BChE [7]: competitive inhibition; IC50 [4, 9]: 1100 ± 890 nM
N-(4-Florobenzyl)-8-quinolinesulfonamide [a12]	–	–	2650 ± 970	fold decrease in activity against MAO-A [2]: 2 fold; IC50 [4, 9]: 1160 ± 770 nM; mode of inhibition toward MAO-B [8]: competitive inhibition

From article PMC10941260 (RSC Advances, 2024)
